In ChEMBL document CHEMBL5316362, “Synthesis of the Purported Structure of Glyphaeaside C and Proposed Revisions to the Structures of the Glyphaeaside Alkaloids” (J Nat Prod, 2023):
One block for each molecule: values may come before it. Calls of active or inactive are those of the source. The calls are words filed in the database; no cut-off is given here.

Columns and labels:
[1] = molecular target: Alpha-galactosidase (Coffea arabica) (UniProt Q42656); assay: Inhibition of coffee bean alpha-galactosidase at 1000 uM relative to control
[2] = Inhibition of Almond beta-glucosidase using p-nitrophenyl glycoside as substrate preincubated for 5 mins followed by substrate addition and measured after 15 mins by spectrometry analysis; set-up: species or system Prunus dulcis
[3] = Inhibition of Almond beta-glucosidase; set-up: species or system Prunus dulcis
Prunus dulcis [4] = assay: Inhibition of Almond beta-glucosidase at 412 uM relative to control
Prunus dulcis [5] = assay: Inhibition of almond beta-glucosidase at 1000 uM relative to control
Alpha-galactosidase = Alpha-galactosidase (Coffea arabica, UniProt Q42656); assay: Inhibition of coffee bean alpha-galactosidase
Alpha-glucosidase = Alpha-glucosidase (Saccharomyces cerevisiae S288c, UniProt P53341+P38158+P07265); assay: Inhibition of yeast alpha-glucosidase; assay type: protein assay
[6] = Inhibition of rice alpha glucosidase; set-up: species or system Oryza sativa
[7] = Inhibition of rat intestinal maltase; assay type: tissue-based, Intestine
[8] = Inhibition of human lysosomal alpha-galactosidase; assay type: subcellular, Lysosome
[9] = molecular target: Beta-glucuronidase (Escherichia coli (strain K12)) (UniProt P05804); assay: Inhibition of Escherichia coli beta-glucuronidase at 1000 uM
Aspergillus niger [10] = assay: Inhibition of Aspergillus niger amyloglucosidase at 1000 uM relative to control
Helix pomatia [11] = assay: Inhibition of snail beta-mannosidase at 1000 uM
[12] = molecular target: Lysosomal alpha-glucosidase (Homo sapiens, UniProt P10253); assay: Inhibition of human lysosomal alpha-glucosidase; assay type: subcellular, Lysosome
[13] = molecular target: T1, Tissue alpha-L-fucosidase (Bos taurus) (UniProt Q2KIM0); assay: Inhibition of bovine kidney alpha-L-fucosidase at 1000 uM; assay type: tissue-based
T1 sequence (whole entry): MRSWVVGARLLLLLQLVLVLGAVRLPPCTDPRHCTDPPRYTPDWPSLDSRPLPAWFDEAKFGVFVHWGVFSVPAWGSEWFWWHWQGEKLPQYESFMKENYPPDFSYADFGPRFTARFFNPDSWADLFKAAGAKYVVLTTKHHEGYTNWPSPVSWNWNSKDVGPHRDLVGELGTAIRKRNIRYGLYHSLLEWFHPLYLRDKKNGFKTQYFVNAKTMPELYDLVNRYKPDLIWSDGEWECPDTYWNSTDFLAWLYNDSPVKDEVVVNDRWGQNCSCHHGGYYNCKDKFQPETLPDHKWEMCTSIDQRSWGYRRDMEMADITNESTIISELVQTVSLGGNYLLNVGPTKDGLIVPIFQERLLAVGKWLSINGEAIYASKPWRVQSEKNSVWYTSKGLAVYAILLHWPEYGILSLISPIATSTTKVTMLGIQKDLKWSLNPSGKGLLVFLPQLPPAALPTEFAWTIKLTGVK

[14] = Inhibition of Bovine liver beta-glucosidase; assay type: tissue-based, Bos taurus
Bos taurus [15] = organism: Bos taurus; assay: Inhibition of bovine liver beta-glucuronidase at 1000 uM; assay type: tissue-based
[16] = (§1) Inhibition of almond beta-glucosidase at 100 uM relative to control; set-up: species or system Prunus dulcis
Sus scrofa [17] = organism: Sus scrofa; assay: Inhibition of porcine kidney trehalase at 1000 uM relative to control; assay type: tissue-based
[18] = Inhibition of bovine liver beta-galactosidase; assay type: tissue-based, Bos taurus
Penicillium decumbens [19] = assay: Inhibition of Penicillium decumbens alpha-L-rhamnosidase at 1000 uM relative to control
[20] = molecular target: T2, Alpha-mannosidase (Canavalia ensiformis) (UniProt C0HJB3); assay: Inhibition of jack bean alpha-mannosidase at 1000 uM
T2 sequence (whole entry): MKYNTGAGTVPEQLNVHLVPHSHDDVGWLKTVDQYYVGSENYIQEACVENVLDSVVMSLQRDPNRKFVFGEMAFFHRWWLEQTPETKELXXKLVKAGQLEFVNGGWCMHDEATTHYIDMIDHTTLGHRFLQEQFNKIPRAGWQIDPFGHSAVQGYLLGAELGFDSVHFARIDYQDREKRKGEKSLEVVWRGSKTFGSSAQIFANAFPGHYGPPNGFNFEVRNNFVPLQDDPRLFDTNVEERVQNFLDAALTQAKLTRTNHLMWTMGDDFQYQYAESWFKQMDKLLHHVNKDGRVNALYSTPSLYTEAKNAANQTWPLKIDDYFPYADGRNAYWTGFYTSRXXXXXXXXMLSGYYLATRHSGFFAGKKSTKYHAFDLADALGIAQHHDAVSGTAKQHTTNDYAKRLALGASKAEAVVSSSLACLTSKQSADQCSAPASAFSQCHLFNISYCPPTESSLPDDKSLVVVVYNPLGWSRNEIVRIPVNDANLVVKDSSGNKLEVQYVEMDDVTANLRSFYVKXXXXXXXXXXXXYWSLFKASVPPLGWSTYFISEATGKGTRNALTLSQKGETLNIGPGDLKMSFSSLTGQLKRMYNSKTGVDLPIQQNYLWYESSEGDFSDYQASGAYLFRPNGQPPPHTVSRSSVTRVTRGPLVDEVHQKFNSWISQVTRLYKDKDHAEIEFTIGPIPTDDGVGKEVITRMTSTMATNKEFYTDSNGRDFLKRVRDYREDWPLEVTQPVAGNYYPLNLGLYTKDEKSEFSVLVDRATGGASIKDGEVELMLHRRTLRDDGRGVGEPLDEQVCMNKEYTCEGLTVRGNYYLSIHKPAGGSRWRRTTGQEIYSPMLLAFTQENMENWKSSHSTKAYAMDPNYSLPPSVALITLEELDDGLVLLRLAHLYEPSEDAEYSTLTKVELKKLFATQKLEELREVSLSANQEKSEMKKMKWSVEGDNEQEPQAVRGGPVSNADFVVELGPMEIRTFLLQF

[21] = molecular target: T2, Alpha-mannosidase (Canavalia ensiformis); assay: Inhibition of jack bean alpha-mannosidase at 100 uM
Penicillium decumbens [22] = assay: Inhibition of Penicillium decumbens alpha-L-rhamnosidase at 100 uM relative to control
[23] = molecular target: T1, Tissue alpha-L-fucosidase (Bos taurus); assay: Inhibition of bovine kidney alpha-L-fucosidase at 100 uM
Sus scrofa [24] = organism: Sus scrofa; assay: Inhibition of porcine kidney trehalase at 100 uM relative to control; assay type: tissue-based
Aspergillus niger [25] = assay: Inhibition of Aspergillus niger amyloglucosidase at 100 uM relative to control
[26] = molecular target: Beta-glucuronidase (Escherichia coli (strain K12)) (UniProt P05804); assay: Inhibition of Escherichia coli beta-glucuronidase at 100 uM
Helix pomatia [27] = assay: Inhibition of snail beta-mannosidase at 100 uM
Prunus dulcis [28] = assay: as §1
Bos taurus [29] = organism: Bos taurus; assay: Inhibition of bovine liver beta-glucuronidase at 100 uM
Homo sapiens = organism: Homo sapiens; assay: Inhibition of human lysosomal alpha-galactosidase at 100 uM realtive to control; assay type: subcellular; settings: Lysosome

Sequence of Alpha-galactosidase (Q42656 whole entry): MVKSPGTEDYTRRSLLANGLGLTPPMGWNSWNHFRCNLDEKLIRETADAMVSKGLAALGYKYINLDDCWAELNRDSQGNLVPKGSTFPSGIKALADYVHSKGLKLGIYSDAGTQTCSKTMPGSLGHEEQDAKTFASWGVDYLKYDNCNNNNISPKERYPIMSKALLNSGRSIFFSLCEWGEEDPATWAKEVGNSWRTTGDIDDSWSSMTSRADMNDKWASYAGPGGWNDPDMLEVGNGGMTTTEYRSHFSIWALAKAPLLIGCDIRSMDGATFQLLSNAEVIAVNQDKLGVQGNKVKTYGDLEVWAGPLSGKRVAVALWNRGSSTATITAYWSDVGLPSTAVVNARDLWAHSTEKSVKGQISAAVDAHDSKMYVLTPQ
Sequence of Beta-glucuronidase (Escherichia coli (strain K12)) (P05804 whole entry, looked up): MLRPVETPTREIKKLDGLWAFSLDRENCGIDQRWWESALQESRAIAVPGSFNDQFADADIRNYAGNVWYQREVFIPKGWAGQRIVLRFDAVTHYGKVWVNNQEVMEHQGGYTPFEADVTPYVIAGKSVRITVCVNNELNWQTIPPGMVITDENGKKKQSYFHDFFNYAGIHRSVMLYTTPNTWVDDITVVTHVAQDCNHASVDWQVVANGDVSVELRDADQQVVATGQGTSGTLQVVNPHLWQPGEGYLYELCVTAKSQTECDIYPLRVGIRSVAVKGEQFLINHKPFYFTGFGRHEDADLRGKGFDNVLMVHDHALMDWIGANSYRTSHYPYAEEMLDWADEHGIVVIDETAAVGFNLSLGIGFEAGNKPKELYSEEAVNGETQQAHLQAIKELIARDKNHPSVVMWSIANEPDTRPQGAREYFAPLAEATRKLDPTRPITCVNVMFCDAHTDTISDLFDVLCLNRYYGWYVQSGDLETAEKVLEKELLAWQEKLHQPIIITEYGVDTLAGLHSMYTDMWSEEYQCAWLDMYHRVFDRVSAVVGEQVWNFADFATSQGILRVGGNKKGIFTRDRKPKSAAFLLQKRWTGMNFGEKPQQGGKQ
Sequence of Alpha-galactosidase (Coffea arabica) (Q42656 16-378 limits assumed): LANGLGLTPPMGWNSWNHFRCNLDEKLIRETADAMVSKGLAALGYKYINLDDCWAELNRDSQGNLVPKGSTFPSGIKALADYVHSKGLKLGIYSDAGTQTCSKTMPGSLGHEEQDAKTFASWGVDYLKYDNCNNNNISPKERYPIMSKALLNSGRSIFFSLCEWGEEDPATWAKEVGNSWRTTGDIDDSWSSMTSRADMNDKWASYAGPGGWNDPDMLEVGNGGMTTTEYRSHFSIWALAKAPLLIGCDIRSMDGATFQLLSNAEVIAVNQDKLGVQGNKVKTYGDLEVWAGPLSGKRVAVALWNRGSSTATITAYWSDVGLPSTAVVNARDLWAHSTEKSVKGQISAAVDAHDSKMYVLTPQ

Structure (SMILES): OC[C@H]1N[C@H](CCCCCCC(O)C(O)Cc2ccc(O)cc2)[C@H](O)[C@@H](O)[C@@H]1O (some centres undefined)
IC50 [2]: 0.15 µM

Structure (SMILES): OC[C@H]1N[C@H](CO)[C@@H](O)[C@H]1O
IC50 [3]: 40 µM

Structure (SMILES): OCCCCCCCCCCCC[C@H](O)[C@@H]1N[C@@H](CO)[C@H](O)[C@H]1O
inhibition (Prunus dulcis [4]): 15.2%

Structure (SMILES): CCCCCCCC[C@H]1N[C@H](CO)[C@@H](O)[C@H](O)[C@H]1O
IC50 (Alpha-glucosidase): 71 µM
IC50 [6]: 0.7 µM
IC50 [7]: 1.7 µM
IC50 [8]: 13 µM
inhibition [9]: inactive
inhibition (Aspergillus niger [10]): 38.8%
inhibition (Helix pomatia [11]): inactive
IC50 [12]: 0.6 µM
inhibition [13]: inactive
IC50 [14]: 195 µM
inhibition (Bos taurus [15]): inactive
IC50 [16]: 175 µM
inhibition (Sus scrofa [17]): 43.2%
IC50 [18]: 52 µM
inhibition (Penicillium decumbens [19]): 43.8%
IC50 [3]: 175 µM
IC50 (Alpha-galactosidase): 3.3 µM
inhibition [20]: inactive

Structure (SMILES): O=C(O)C(F)(F)F.OC[C@H]1N[C@H](CCCCCCCCCc2ccc(O)cc2)[C@H](O)[C@@H](O)[C@@H]1O
IC50 (Alpha-glucosidase): 95 µM
inhibition [21]: inactive
IC50 [6]: 0.4 µM
IC50 [7]: 0.95 µM
inhibition (Penicillium decumbens [22]): 10.9%
inhibition [23]: inactive
inhibition (Sus scrofa [24]): 13.2%
IC50 [12]: 0.25 µM
inhibition (Aspergillus niger [25]): 16.4%
IC50 [14]: 25 µM
inhibition [26]: inactive
inhibition (Helix pomatia [27]): inactive
inhibition (Prunus dulcis [28]): 33.1%
IC50 [18]: 4.1 µM
inhibition (Bos taurus [29]): inactive
inhibition (Homo sapiens): 42.9%
IC50 (Alpha-galactosidase): 22 µM

Second part, the molecule after the results:

inhibition [1]: 76%
Structure (SMILES): OC[C@H]1N[C@H](C(O)CCCCCCC(O)C(O)c2ccccc2)[C@H](O)[C@@H](O)[C@H]1O (some centres undefined)

IC50 [3]: 0.92 µM
Structure (SMILES): OC[C@H]1N[C@H]([C@H](O)CCCCCC[C@H](O)[C@@H](O)Cc2ccc(O)cc2)[C@@H](O)[C@@H]1O

IC50 [3]: 15 µM
Structure (SMILES): OC[C@H]1N[C@H]([C@H](O)C(O)CCCCCC(O)C(O)C(O)c2ccccc2)[C@@H](O[C@@H]2O[C@H](CO)[C@@H](O)[C@H](O)[C@H]2O)[C@H]1O (some centres undefined)

IC50 [3]: 68 µM
Structure (SMILES): OC[C@H]1N[C@H]([C@H](O)C(O)CCCCCCC(O)C(O)c2ccccc2)[C@@H](O[C@@H]2O[C@H](CO)[C@@H](O)[C@H](O)[C@H]2O)[C@H]1O (some centres undefined)

inhibition (Prunus dulcis [5]): < 50%
IC50 (Alpha-galactosidase): 8 µM
Structure (SMILES): OCCCCCC/C=C\C[C@H](O)[C@@H](O)[C@H]1N[C@H](CO)[C@H](O)[C@@H]1O[C@@H]1O[C@H](CO)[C@@H](O)[C@H](O)[C@H]1O
